Reference: patent publication US20260250290A1 (BRISTOL-MYERS SQUIBB COMPANY, priority 2023, published 2026)

Biological target: T1, SGK1 (Homo sapiens, UniProt O00141)
T1 sequence (O00141 1-431): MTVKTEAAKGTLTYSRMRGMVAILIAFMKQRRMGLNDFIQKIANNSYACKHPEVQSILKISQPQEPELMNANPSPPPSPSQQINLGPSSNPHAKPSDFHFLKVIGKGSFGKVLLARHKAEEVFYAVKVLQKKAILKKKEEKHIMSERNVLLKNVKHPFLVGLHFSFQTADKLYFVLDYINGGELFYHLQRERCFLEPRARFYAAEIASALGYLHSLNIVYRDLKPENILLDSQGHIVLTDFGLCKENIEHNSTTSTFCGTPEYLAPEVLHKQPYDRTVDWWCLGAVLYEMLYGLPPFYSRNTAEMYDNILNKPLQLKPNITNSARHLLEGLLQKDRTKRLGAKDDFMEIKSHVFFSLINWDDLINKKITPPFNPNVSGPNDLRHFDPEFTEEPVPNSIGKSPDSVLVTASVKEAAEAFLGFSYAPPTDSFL
Assay: SGK1 inhibition Assay B (Echo mass spectrometry of phosphorylated peptide product)
Assay type: biochemical
Conditions: 60 min at room temperature

In order of falling IC50:
1. Cc1nc(OC2CC3(CCN(C)CC3)C2)c(C(=O)N[C@@H]2CCCN(c3cc(-c4ccc(C#N)nc4)n4ncnc(N)c34)C2)s1 [Example 955, (R)—N-(1-(4-amino-7-(6-cyanopyridin-3-yl)pyrrolo[2,1-f][1,2,4]triazin-5-yl)piperidin-3-yl)-2-methyl-4-((7-methyl-7-azaspiro[3.5]nonan-2-yl)oxy)thiazole-5-carboxamide]  17 nM
2. Cc1nc(O[C@H]2CC[C@@H](CNCC(C)(C)C)CC2)c(C(=O)N[C@@H]2CCCN(c3cc(-c4ccc(C(N)=O)c(F)c4)n4ncnc(N)c34)C2)s1 [Example 945, N—((R)-1-(4-Amino-7-(4-carbamoyl-3-fluorophenyl)pyrrolo[2,1-f][1,2,4]triazin-5-yl)piperidin-3-yl)-2-methyl-4-(((cis)-4-((neopentylamino)methyl)cyclohexyl)oxy)thiazole-5-carboxamide]  4 nM
3. CC(C)c1nc(O[C@@H]2C[C@H]3CC[C@@H](C2)N3C)c(C(=O)N[C@@H]2CCCN(c3cc(-c4ccc(=O)n(CC(F)F)c4)n4ncnc(N)c34)C2)s1 [Example 951, N—((R)-1-(4-Amino-7-(1-(2,2-difluoroethyl)-6-oxo-1,6-dihydropyridin-3-yl)pyrrolo[2,1-f][1,2,4]triazin-5-yl)piperidin-3-yl)-2-isopropyl-4-(((1R,3s,5S)-8-methyl-8-azabicyclo[3.2.1]octan-3-yl)oxy)thiazole-5-carboxamide]  3 nM
4. Cc1nc(O[C@@H]2C[C@H]3CC[C@@H](C2)N3C(C)C)c(C(=O)N[C@@H]2CCCN(c3cc(-c4ccc(C(N)=O)c(OCC(F)F)n4)n4ncnc(N)c34)C2)s1 [Example 956, N—((R)-1-(4-Amino-7-(5-carbamoyl-6-(2,2-difluoroethoxy)pyridin-2-yl)pyrrolo[2,1-f][1,2,4]triazin-5-yl)piperidin-3-yl)-4-(((1R,3s,5S)-8-isopropyl-8-azabicyclo[3.2.1]octan-3-yl)oxy)-2-methylthiazole-5-carboxamide]  2 nM
5. CC(=O)N1CC=C(c2cc(N3CCC[C@@H](NC(=O)c4sc(Cl)cc4OC4C[C@@H]5CN(C)C[C@@H]5C4)C3)c3c(N)ncnn23)C1 (stereo partly drawn) [Example 958, N—((R)-1-(7-(1-acetyl-2,5-dihydro-1H-pyrrol-3-yl)-4-aminopyrrolo[2,1-f][1,2,4]triazin-5-yl)piperidin-3-yl)-5-chloro-3-(((3aR,6aS)-2-methyloctahydrocyclopenta[c]pyrrol-5-yl)oxy) thiophene-2-carboxamide]  2 nM
6. CCN1CC[C@@H](Oc2cc(C(F)F)sc2C(=O)N[C@@H]2CCCN(c3cc(-c4ccc(C(N)=O)c(F)c4)n4ncnc(N)c34)C2)CC1(C)C [Example 947, N—((R)-1-(4-amino-7-(4-carbamoyl-3-fluorophenyl)pyrrolo[2,1-f][1,2,4]triazin-5-yl)piperidin-3-yl)-5-(difluoromethyl)-3-(((R)-1-ethyl-2,2-dimethylpiperidin-4-yl)oxy)thiophene-2-carboxamide]  1 nM
7. N#Cc1ccc(-c2cc(N3CCC[C@@H](NC(=O)c4sc(Cl)cc4O[C@@H]4CN5CCC4CC5)C3)c3c(N)ncnn23)cn1 [Example 950, N—((R)-1-(4-Amino-7-(6-cyanopyridin-3-yl)pyrrolo[2,1-f][1,2,4]triazin-5-yl)piperidin-3-yl)-5-chloro-3-(((S)-quinuclidin-3-yl)oxy)thiophene-2-carboxamide]  0.6 nM
8. CC(=O)N1CC=C(c2cc(N3CCC[C@@H](NC(=O)c4nc(OC5CCNCC5)c(C)s4)C3)c3c(N)ncnn23)C1 [Example 957, (R)—N-(1-(7-(1-acetyl-2,5-dihydro-1H-pyrrol-3-yl)-4-aminopyrrolo[2,1-f][1,2,4]triazin-5-yl)piperidin-3-yl)-5-methyl-4-(piperidin-4-yloxy)thiazole-2-carboxamide]  0.6 nM
